Results published in the supplement of paper PMC10307832.

Legend:
Test in all cases: relative viability (nuclei count vs DMSO), 5 days (fraction); higher = more cells survive
[1] = compound: CS(=O)(=O)CCNCc1ccc(-c2ccc3ncnc(Nc4ccc(OCc5cccc(F)c5)c(Cl)c4)c3c2)o1 [Lapatinib] + O=C(c1cc(Cc2n[nH]c(=O)c3ccccc23)ccc1F)N1CCN(C(=O)C2CC2)CC1 [Olaparib] (partner 8 µM)
Procedure, shortened: (§1)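 A single step with final 0.05% Triton X-100, 1% formaldehyde and 1 ug/ml Hoechst fixed the cells and stained nuclei 5 days after treatment. Lung cancer cell lines in 1536-well plates had been treated by pin tool the day after seeding with one drug alone or a fixed anchor-drug dose plus five library-drug doses (not always all listed) in √10 steps, and nuclei were counted on 4× images. Relative viability is the ratio of nuclei in treated wells to nuclei in vehicle wells, taken as the median of duplicate plates.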

[2] = compound: CS(=O)(=O)CCNCc1ccc(-c2ccc3ncnc(Nc4ccc(OCc5cccc(F)c5)c(Cl)c4)c3c2)o1 [Lapatinib] + COc1cccc2cc(-c3nc([C@H]4CC[C@H](C(=O)O)CC4)n4ncnc(N)c34)[nH]c12 [OSI-027] (partner 0.5 µM)
Procedure, shortened: as §1

[3] = compound: CS(=O)(=O)CCNCc1ccc(-c2ccc3ncnc(Nc4ccc(OCc5cccc(F)c5)c(Cl)c4)c3c2)o1 [Lapatinib] + CC(=O)Nc1cccc(-n2c(=O)n(C3CC3)c(=O)c3c(Nc4ccc(I)cc4F)n(C)c(=O)c(C)c32)c1 [Trametinib] (partner 0.02 µM)
Procedure, shortened: as §1

[4] = compound: CS(=O)(=O)CCNCc1ccc(-c2ccc3ncnc(Nc4ccc(OCc5cccc(F)c5)c(Cl)c4)c3c2)o1 [Lapatinib] + Cc1nc(NC(=O)N2CCC[C@H]2C(N)=O)sc1-c1ccnc(C(C)(C)C(F)(F)F)c1 [Alpelisib] (partner 2 µM)
Procedure, shortened: as §1

Cell Line | relative viability ([1]; first compound 0.02 µM) | relative viability ([1]; first compound 0.06325 µM) | relative viability ([1]; first compound 0.2 µM) | relative viability ([1]; first compound 0.6325 µM) | relative viability ([1]; first compound 2 µM) | relative viability ([2]; first compound 0.06325 µM) | relative viability ([2]; first compound 0.2 µM) | relative viability ([2]; first compound 0.6325 µM) | relative viability ([2]; first compound 2 µM) | relative viability ([3]; first compound 0.02 µM) | relative viability ([3]; first compound 0.06325 µM) | relative viability ([3]; first compound 0.2 µM) | relative viability ([3]; first compound 0.6325 µM) | relative viability ([3]; first compound 2 µM) | relative viability ([4]; first compound 0.02 µM) | relative viability ([4]; first compound 0.06325 µM) | relative viability ([4]; first compound 0.2 µM) | relative viability ([4]; first compound 0.6325 µM) | relative viability ([4]; first compound 2 µM) | relative viability ([2]; first compound 0.02 µM)
HARA | 0.712 | 0.552 | 0.957 | 0.618 | 0.402 | 0.214 | 0.474 | 0.328 | 0.239 | 0.476 | 0.316 | 0.331 | 0.36 | 0.304 | 0.739 | 0.573 | 0.593 | 0.625 | 0.288 | –
H3255 | 0.526 | 0.516 | 0.634 | 0.469 | 0.325 | 0.524 | 0.505 | 0.431 | 0.236 | – | 0.49 | 0.623 | 0.516 | 0.25 | 0.591 | 0.506 | 0.643 | 0.635 | 0.232 | 0.577
NCI-H322M | 0.756 | 0.711 | 0.836 | 0.818 | 0.763 | 0.374 | 0.571 | 0.46 | 0.431 | 0.493 | 0.435 | 0.492 | 0.508 | 0.377 | 0.776 | 0.669 | 0.808 | 0.73 | 0.773 | 0.591
NCI-H1666 | 0.761 | 0.776 | 0.743 | 0.703 | 0.719 | 0.732 | 0.645 | 0.657 | 0.316 | 0.722 | 0.718 | 0.727 | 0.674 | 0.501 | 0.744 | 0.835 | 0.671 | 0.485 | 0.244 | 0.828
HCC-44 | 0.981 | 1 | 0.992 | 0.974 | 0.867 | 0.341 | 0.509 | 0.421 | 0.473 | 1.03 | 1.05 | 1.16 | 1.04 | 0.807 | 0.689 | 0.621 | 0.75 | 0.873 | 0.535 | –
HCC-366 | – | 0.411 | 0.38 | 0.38 | 0.251 | 0.58 | 0.838 | 0.859 | 0.373 | – | 0.293 | 0.253 | 0.371 | 0.2 | – | 0.282 | 0.381 | 0.446 | 0.242 | –
LU99A | 0.302 | 0.282 | 0.276 | 0.237 | 0.234 | 0.244 | 0.297 | 0.293 | 0.284 | 0.532 | 0.453 | 0.448 | 0.511 | 0.536 | 0.564 | 0.476 | 0.527 | 0.524 | 0.54 | 0.283
NCI-H460 | – | 0.406 | 0.421 | 0.41 | 0.262 | 0.438 | 0.481 | 0.533 | 0.477 | 0.0377 | 0.0952 | 0.282 | 0.171 | 0.0626 | 0.415 | 0.362 | 0.448 | 0.389 | 0.4 | 0.544
